The values that follow come from ChEMBL document CHEMBL5357016, “Discovery of Novel PDEδ Autophagic Degraders: A Case Study of Autophagy-Tethering Compound (ATTEC)” (ACS Med Chem Lett, 2024).

pIC50: −log10 of the molar value. Activity calls are given as the source filed them. The rule behind the calls is not given here.

The subject of data set [1] is MIA PaCa-2. As to the kind of experiment: Antiproliferative activity against human MIA PaCa-2 cells harboring KRAS mutant assessed as reduction in cell proliferation incubated for 72 hrs by CCK-8 assay. The settings on record: MIA PaCa-2, 72 h.
Data set [2] deals with CAPAN-1. As to the kind of experiment: Antiproliferative activity against human CAPAN-1 cells harboring KRAS mutant assessed as reduction in cell proliferation incubated for 72 hrs by CCK-8 assay. The conditions noted are these: CAPAN-1, 72 h. A general note: Tetrazolium assays rely on reduction of a dye to a coloured formazan, in cell work by metabolically active cells.
Data set [3] concerns MIA PaCa-2. As to the kind of experiment: Induction of apoptosis in human MIA PaCa-2 cells harboring KRAS mutant assessed as early apoptotic cells at 1 uM measured after 24 hrs by Annexin V-FITC/PI staining based flow cytometric analysis (Rvb= 4.62%). The class given is functional. On the technique in general: In flow cytometry, cells or beads pass a laser one at a time.
The test system of data set [4] is MIA PaCa-2. As to the kind of experiment: Induction of apoptosis in human MIA PaCa-2 cells harboring KRAS mutant assessed as late apoptotic cells at 1 uM measured after 24 hrs by Annexin V-FITC/PI staining based flow cytometric analysis (Rvb= 10.56%). Format: functional.
For data set [5], the system named is MIA PaCa-2. As to the kind of experiment: Induction of apoptosis in human MIA PaCa-2 cells harboring KRAS mutant assessed as necrotic cells at 1 uM measured after 24 hrs by Annexin V-FITC/PI staining based flow cytometric analysis (Rvb= 0.3%). Format: functional.
The test system of data set [6] is MIA PaCa-2. As to the kind of experiment: Induction of apoptosis in human MIA PaCa-2 cells harboring KRAS mutant assessed as early apoptotic cells at 10 uM measured after 24 hrs by Annexin V-FITC/PI staining based flow cytometric analysis (Rvb= 4.62%). Format: functional.
In data set [7] the test system is MIA PaCa-2. As to the kind of experiment: Induction of apoptosis in human MIA PaCa-2 cells harboring KRAS mutant assessed as late apoptotic cells at 10 uM measured after 24 hrs by Annexin V-FITC/PI staining based flow cytometric analysis (Rvb= 10.56%). The class given is functional.
In data set [8] the test system is MIA PaCa-2. As to the kind of experiment: Induction of apoptosis in human MIA PaCa-2 cells harboring KRAS mutant assessed as necrotic cells at 10 uM measured after 24 hrs by Annexin V-FITC/PI staining based flow cytometric analysis (Rvb= 0.3%). Format: functional.
The test system of data set [9] is MIA PaCa-2. As to the kind of experiment: Effect on PDEdelta mRNA expression in human MIA PaCa-2 cells measured after 24 hrs by RT-qPCR analysis. Format: functional, cell-based. In general terms: In qPCR the cycle at which signal appears reflects the starting amount.
Data set [10] can be described thus: Drug localization in lysosome of human HeLa cells assessed as green fluorescence pretreated with compound for 2 hrs followed by probe administration and measured after 1.5 hrs by fluorescence imaging analysis. The class given is ADME, subcellular. The settings on record: 3.5 h.
Data set [11] in a line: Drug uptake in lysosome of human HeLa cells assessed as drug fusion by measuring red fluorescence pretreated with compound for 2 hrs followed by probe administration and measured after 1.5 hrs by fluorescence imaging analysis. The class given is ADME, subcellular. The conditions noted are these: 3.5 h.

As to `Cc1ccc(-n2nc3c(=O)n(CCCC(=O)NCCCCCCNC(=O)COc4c(Br)cc(/C=C5\C(=O)Nc6ccc(I)cc65)cc4Br)nc(C)c3c2C)cc1`, the negative logarithm of the IC50 (pIC50) in [1] was 5.85; in data set [2] it was 6.10. Besides, the Activity in data set [3] is on record as 3.8%; in [4], 18.43%; in data set [5], 0.43%; in data set [6] it was 9.76%; in [7] it was 23.49%; in [8] it was 11.64%. Also, the outcome in data set [9] was inactive.

With `Cc1ccc(-n2nc3c(=O)n(CCCC(=O)NCCOCCOCCNC(=O)COc4c(Br)cc(/C=C5\C(=O)Nc6ccc(I)cc65)cc4Br)nc(C)c3c2C)cc1`, the negative-log IC50 (pIC50) is 4.60 in [1] and 5.46 in data set [2].

With `O=C(COc1c(Br)cc(/C=C2\C(=O)Nc3ccc(I)cc32)cc1Br)NCCCOCCOCCOCCCNC(=S)Nc1ccc2c(c1)C(=O)OC21c2ccc(O)cc2Oc2cc(O)ccc21`, the Drug uptake result in data set [10] and in [11] was “Active” each time.

One may read the pIC50 as the negative decadic logarithm of the IC50, by convention in mol/L.
